Measurements taken from patent US7355042B2, “Treatment of CNS disorders using CNS target modulators” (Hypnion, Inc., priority 2001, dated 2008).

Experiments:
male Wistar rats = assay: Sleep-wakefulness, locomotor activity and body temperature monitoring (SCORE-2000); assay type: in vivo, rat; conditions: for Average Bout-Length / Duration / Maximum Bout Length / NREM Accum. / NREM Peak (%/hr) / Onset: 30 mg/kg PO at CT-18
[1] = target: T1, H1 receptor from bovine cellular membranes (Bos taurus, UniProt P30546); assay: H1 binding assay, [3H]pyrilamine displacement; conditions: for IC50: Table 6, Series 11, unit inferred
T1 construct: the H1 receptor was from bovine cellular membranes; from tissue
T1 sequence (P30546 whole entry): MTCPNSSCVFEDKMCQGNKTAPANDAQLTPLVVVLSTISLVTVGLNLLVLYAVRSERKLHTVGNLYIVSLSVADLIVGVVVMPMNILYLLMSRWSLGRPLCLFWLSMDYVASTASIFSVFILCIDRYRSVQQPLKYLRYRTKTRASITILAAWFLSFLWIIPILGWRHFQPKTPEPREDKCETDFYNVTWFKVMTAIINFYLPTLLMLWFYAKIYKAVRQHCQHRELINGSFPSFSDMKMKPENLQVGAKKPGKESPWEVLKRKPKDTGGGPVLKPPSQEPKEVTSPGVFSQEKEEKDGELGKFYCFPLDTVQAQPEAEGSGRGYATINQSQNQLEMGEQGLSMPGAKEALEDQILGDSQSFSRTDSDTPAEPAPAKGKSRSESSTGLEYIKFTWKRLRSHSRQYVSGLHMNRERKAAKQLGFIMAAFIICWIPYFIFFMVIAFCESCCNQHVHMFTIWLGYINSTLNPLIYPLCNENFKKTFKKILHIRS

[2] = target: T2, human recombinant M1 muscarinic receptor expressed in CHO cells (Homo sapiens, UniProt P11229); assay: M1 binding assay (human recombinant), [3H]-scopolamine N-methyl chloride; conditions: Table 7; human recombinant; read-out: Receptor Binding Data (Ki nM) M1
T2 construct: expressed in transfected cells; host or cells: CHO cells
T2 sequence (P11229 1-460): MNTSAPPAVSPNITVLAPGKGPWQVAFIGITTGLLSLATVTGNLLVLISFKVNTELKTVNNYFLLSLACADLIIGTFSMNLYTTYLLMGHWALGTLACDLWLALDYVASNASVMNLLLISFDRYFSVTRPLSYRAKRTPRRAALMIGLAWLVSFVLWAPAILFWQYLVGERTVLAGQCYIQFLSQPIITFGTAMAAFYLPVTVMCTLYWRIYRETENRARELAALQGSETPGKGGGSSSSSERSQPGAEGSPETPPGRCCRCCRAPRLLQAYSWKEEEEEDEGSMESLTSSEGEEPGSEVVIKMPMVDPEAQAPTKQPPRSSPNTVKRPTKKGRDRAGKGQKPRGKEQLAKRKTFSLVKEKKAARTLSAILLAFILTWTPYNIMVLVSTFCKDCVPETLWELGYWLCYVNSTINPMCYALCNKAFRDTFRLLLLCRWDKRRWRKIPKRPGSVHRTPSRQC

[3] = target: T3, human recombinant M3 muscarinic receptor expressed in CHO cells (Homo sapiens, UniProt P20309); assay: M3 binding assay (human recombinant)
T3 construct: expressed in transfected cells; host or cells: CHO cells
T3 sequence (P20309 whole entry): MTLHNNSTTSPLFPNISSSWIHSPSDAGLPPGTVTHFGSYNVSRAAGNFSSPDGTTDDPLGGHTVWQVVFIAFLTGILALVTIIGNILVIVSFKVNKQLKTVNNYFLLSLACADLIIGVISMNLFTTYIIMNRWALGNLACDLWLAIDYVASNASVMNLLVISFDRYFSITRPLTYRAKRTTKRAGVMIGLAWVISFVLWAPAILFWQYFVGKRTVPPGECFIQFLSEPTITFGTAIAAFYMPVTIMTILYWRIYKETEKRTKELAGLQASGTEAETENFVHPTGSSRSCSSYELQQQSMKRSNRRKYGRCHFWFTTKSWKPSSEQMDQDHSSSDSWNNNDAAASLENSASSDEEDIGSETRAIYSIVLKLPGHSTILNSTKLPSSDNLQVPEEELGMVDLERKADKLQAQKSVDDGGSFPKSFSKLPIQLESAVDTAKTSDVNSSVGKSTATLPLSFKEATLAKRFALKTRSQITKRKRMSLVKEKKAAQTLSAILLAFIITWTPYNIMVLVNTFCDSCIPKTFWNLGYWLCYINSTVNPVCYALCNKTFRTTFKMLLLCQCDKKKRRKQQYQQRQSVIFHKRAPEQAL

[4] = 30 mg/kg and 10 mg/kg, intraperitoneal bolus at CT-18
[5] = intraperitoneal at CT-18, 11f 10 or 30 mg/kg, 6f and 15f 30 mg/kg

Row | SMILES | Average Bout-Length (male Wistar rats) [min] | Duration (male Wistar rats) [h] | Maximum Bout Length (male Wistar rats) [min] | NREM Accum. (male Wistar rats) [min] | NREM Peak (%/hr) (male Wistar rats) | Onset (male Wistar rats) [min] | IC50 [1] [nM] | cumulative effect on total sleep time (TST) during the initial 5 hours post-treatment, relative to baseline (male Wistar rats; 30 mg/kg IP versus Zolpidem 10 mg/kg) | sleep continuity, as assessed by sleep bout length (male Wistar rats; [4]) | time post-treatment over which total sleep time was increased (male Wistar rats; [4]) [h] | total sleep time (male Wistar rats; [4]) | REM sleep inhibition (male Wistar rats; [5]) | rebound insomnia (male Wistar rats; [5]) | Ki [2] [nM] | Ki [3] [nM] | Ki ([1]; Receptor Binding Data (Ki nM) H1, Table 7) [nM]
1 | O=C(O)CCN1CCC(OC(c2ccccc2)c2ccccc2)CC1 [Compound 6a, 3-[4-(diphenylmethoxy)piperidin-1-yl]propanoic acid] | 7.0 | 5 | 12.8 | 26.5 | 56.4 | 65 | – | – | – | – | – | – | – | – | – | –
2 | O=C(O)CCN1CCC(=C(c2ccccc2)c2ccccc2)CC1 [Compound 11a] | 11.2 | 6 | 18.7 | 41.2 | 67.3 | 85 | 308 | – | – | – | – | – | – | – | – | –
3 | CC(C)OC(=O)CCN1CCC(=C(c2ccccc2)c2ccccc2)CC1 [Compound 11d, Isopropyl 3-[4-(diphenylmethylidene)piperidin-1-yl]propanoate] | 11.0 | 6 | 20.1 | 55.5 | 58.5 | 135 | 378 | – | – | – | – | – | – | – | – | –
4 | CC(C)COC(=O)CCN1CCC(=C(c2ccccc2)c2ccccc2)CC1 [Compound 11e, Isobutyl 3-[4-(diphenylmethylidene)piperidin-1-yl]propanoate] | 8.3 | 6 | 19.1 | 49.6 | 59.6 | 80 | 718 | – | – | – | – | – | – | – | – | –
5 | O=C(CCN1CCC(=C(c2ccccc2)c2ccccc2)CC1)OC1CCCC1 [Compound 11f, Cyclopentyl 3-[4-(diphenylmethylidene)piperidin-1-yl]propanoate] | – | – | – | – | – | – | 1070 | induced more TST than Zolpidem | increased sleep continuity | 3 | significantly increased total sleep time | did not, however, produce REM sleep inhibition or rebound insomnia | did not, however, produce REM sleep inhibition or rebound insomnia | – | – | –
6 | O=C(O)CN1CCC(C(c2ccccc2)c2ccccc2)CC1 [Compound 16a, [4-(Diphenylmethyl)piperidin-1-yl]ethanoic acid] | 5.4 | 5 | 11.8 | 20.7 | 57.9 | 180 | – | – | – | – | – | – | – | > 10000 | > 10000 | 43.9
7 | Cl.O=C(O)CCCN1CCC(OC(c2ccccc2)c2ccccc2)CC1 [Compound 53a] | 4.3 | 4 | 9.1 | 17.4 | 49.2 | 30 | – | – | – | – | – | – | – | – | – | –
